Experiments:
[1] = tested on: Trypanosoma cruzi; assay: GSK_TCAKS: pIC50 Trypanosoma cruzi viability assay using beta-GAL activity. This assay was run at single shot at 5uM compound concentration per well. The biological reagents consisted of NIH-3T3 host cells and trypomastigotes parasitic cells; both cell types were set to a 3.3 * 10^5 cells/mL dilution in assay DMEM by means of a CASY cell counter device using a 60um capillary. 6 uL of the mixture were dispensed per well (about 1 * 10^3 host-cells and 1 * 10^3 parasites) with a Multidrop Combi dispenser. […] In all wells, the percentage of DMSO never exceeded 0.5%. Plates incubated for four days at 37C, 5% CO2. The substrate used for the assay fluorescence intensity (FLINT) readout was resorufin-beta-D-galactopiranoside (Sigma-Aldrich) at 5uM per well. It was diluted in PBS supplemented with the soft detergent Igepal (Fluka).; format: functional, organism-based, Mus musculus; conditions: Tulahuen, NIH3T3
[2] = tested on: Trypanosoma cruzi; assay: (§1) GSK_TCAKS: pIC50 Trypanosoma cruzi Imaging: Infected Cells. […] Cells were then washed once with PBS before infection. T. cruzi trypomastigotes, collected at days 5 to 8 after infection from LLC-MK2 parasite infected cultures, were allowed to swim out for 4h at 37C from a centrifuged pellet (2,500 rpm/10 min/room temperature). Trypomastigotes were then collected and counted in a CASY Cell Counter. Trypomastigotes, in supplemented DMEM, were added to H9c2 cultures in a multiplicity of infection of 1 and incubated for 18 h. Cells were washed once with PBS before incubation of the infected H9c2 monolayer with trypsin (Life-Technologies) to detach cells from the flask. Cells were counted in a CASY Cell Counter using a 150 um capillary and their density set at 5 * 10^4 cells per mL in supplemented assay DMEM. Infected H9c2 were dispensed into 384-well poly-lysine coated assay plates at 50uL per well using a Multidrop Combi dispenser. After seeding them, the plates were incubated at 37C, 5% CO2 for 72h. Cultures were then fixed and stained by addition of 50 uL of a solution containing 8% formaldehyde and 4 uM DRAQ5 DNA dye (BioStatus, UK) per well. […] Five images were collected per well for reliable statistical analysis. Automated image analysis was performed with a script developed on Acapella High Content Imaging and Analysis Software (PerkinElmer). Output: percentage of infected cells per well as a second infection marker.; format: functional, organism-based, Rattus norvegicus; conditions: H9c2, 4 h
[3] = tested on: Trypanosoma cruzi; assay: GSK_TCAKS: pIC50 Trypanosoma cruzi Imaging: Amastigotes/Cell. […] Cells were then washed once with PBS before infection. T. cruzi trypomastigotes, collected at days 5 to 8 after infection from LLC-MK2 parasite infected cultures, were allowed to swim out for 4h at 37C from a centrifuged pellet (2,500 rpm/10 min/room temperature). Trypomastigotes were then collected and counted in a CASY Cell Counter. Trypomastigotes, in supplemented DMEM, were added to H9c2 cultures in a multiplicity of infection of 1 and incubated for 18 h. Cells were washed once with PBS before incubation of the infected H9c2 monolayer with trypsin (Life-Technologies) to detach cells from the flask. Cells were counted in a CASY Cell Counter using a 150 um capillary and their density set at 5 * 10^4 cells per mL in supplemented assay DMEM. Infected H9c2 were dispensed into 384-well poly-lysine coated assay plates at 50uL per well using a Multidrop Combi dispenser. After seeding them, the plates were incubated at 37C, 5% CO2 for 72h. Cultures were then fixed and stained by addition of 50 uL of a solution containing 8% formaldehyde and 4 uM DRAQ5 DNA dye (BioStatus, UK) per well. […] Five images were collected per well for reliable statistical analysis. Automated image analysis was performed with a script developed on Acapella High Content Imaging and Analysis Software (PerkinElmer). Output: number of amastigotes per cell as infection level measurement.; format: functional, organism-based, Rattus norvegicus; conditions: H9c2, 4 h
[4] = tested on: Trypanosoma cruzi; assay: as §1, with “H2C9” for “Trypanosoma cruzi”, “H9c2 Host Cardiomyocytes.” for “Infected Cells.”, “Number” for “percentage”, “H9c2 Host Cardiomyocytes nuclei to determine drug-related cytotoxicity.” for “infected cells per well as a second infection marker.”; format: functional, organism-based, Rattus norvegicus; conditions: H9c2, 4 h
[5] = tested on: Leishmania donovani; assay: GSK_TCAKS: pIC50 Leishmania donovani viability assay using fluorescence intensity. Assay plates (1536-well) were prepared by adding 30nL per well of compound. For single shot assay, the final compound concentration was 5uM. […] Briefly, eGFP LdBOB axenic amastigotes were harvested, fixed and counted in a CASY cell counter (Roche-Applied Science). A final concentration of 1.5 * 10^5 cells per well were prepared in amastigote media containing 500 U/mL penicillin/streptomycin (Invitrogen) and 6uL was dispensed to each experimental well using a Multidrop Combi dispenser (Thermo Scientific). 6uL of assay media was dispensed to control columns used as reference for 100% compound response. Following incubation for 72 h at 37C, 5% CO2, 2 uL of resazurin was added to each well at a final concentration of 0.5 mM in phosphate buffered saline (PBS) with IGEPAL (Sigma-Aldrich), 0.05% (v/v).; format: functional, organism-based
[6] = tested on: Leishmania donovani; assay: GSK_TCAKS: pIC50 Leishmania donovani Imaging: Infected Macrophages. Assay plates (384-well) were prepared by adding 250nL of compound to each well. For single shot assay, the final compound concentration was 5 uM. […] Automated image analysis was performed with a script developed on Acapella High Content Imaging and Analysis Software (PerkinElmer). Output: Percent of infected macrophage cells were reported for each well.; format: functional, organism-based, Homo sapiens; conditions: THP-1
[7] = tested on: Leishmania donovani; assay: GSK_TCAKS: pIC50 Leishmania donovani Imaging: Amastigotes/Macrophages. Assay plates (384-well) were prepared by adding 250nL of compound to each well. For single shot assay, the final compound concentration was 5 uM. […] Automated image analysis was performed with a script developed on Acapella High Content Imaging and Analysis Software (PerkinElmer). Output: Average number of amastigotes per macrophage cell were reported for each well.; format: functional, organism-based, Homo sapiens; conditions: THP-1
[8] = tested on: Leishmania donovani; assay: GSK_TCAKS: pIC50 Leishmania donovani Imaging: THP-1 Host Macrophages. Assay plates (384-well) were prepared by adding 250nL of compound to each well. For single shot assay, the final compound concentration was 5 uM. […] Automated image analysis was performed with a script developed on Acapella High Content Imaging and Analysis Software (PerkinElmer). Output: THP-1 cell count were reported for each well.; format: functional, organism-based, Homo sapiens
[9] = tested on: Trypanosoma brucei brucei; assay: GSK_TCAKS: pIC50 Trypanosoma brucei viability assay using fluorescence intensity. Assay plates (1536-well) were prepared by dispensing 25nL of compound solution per well using an Echo acoustic dispenser (Labcyte).; format: functional, organism-based; conditions: Lister 427, 2 h
[10] = tested on: Trypanosoma brucei brucei; assay: GSK_TCAKS: pIC50 Trypanosoma brucei viability assay using luminiscence. Assay plates (1536-well) were prepared. T. brucei cultures were harvested and counted in a CASY cell counter. A parasite suspension was prepared at a final concentration of 5 * 10^4 cells/mL in complete HMI9 medium and 6uL was dispensed to all wells containing compounds using a Multidrop Combi dispenser. 6uL of HMI9 media with 0.4% DMSO were dispensed to control columns. Plates were incubated for 24 h at 37C, 5% CO2 then tempered for 10 min at room temperature. ATP content was quantified by adding 4 uL of CellTiter-Glo Reagent (Promega) according to the manufacturer's instructions. Luminescence was measured using a ViewLux.; format: functional, organism-based; conditions: Lister 427, CASY
[11] = GSK_TCAKS: pIC50 HepG2 human cell line viability assay using luminiscence. […] Seeding density was checked to ensure that new mono-layers were not more than 50% confluent at the time of harvesting. Cell suspension was added to 500 mL of the same medium at a final density of 1.2 * 10^5 cells/mL. This cell suspension was dispensed (25 uL, 3000 cells per well) into 384-well clear-bottom plates using a Multidrop Combi dispenser. Prior to addition of the cell suspension, the screening compounds (250 nL) were pre-dispensed into the plates with an Echo liquid handler. Plates were incubated for 48 h at 37C, 5% CO2. After incubation, plates equilibrated at room temperature for 30 min before proceeding to develop the luminescent signal. The signal developer, CellTiter-Glo Reagent, was allowed to equilibrate at room temperature for 30 min and added to the plates (25uL per well) using a Multidrop Combi dispenser. Plates were left for 10 min at room temperature for stabilization and then read using a ViewLux.; format: toxicity, cell-based
[12] = target: Sterol 14-alpha demethylase (Trypanosoma cruzi (strain CL Brener), UniProt Q7Z1V1); assay: GSK_TCAKS: pIC50 CYP51 from Trypanosoma cruzi.; format: functional
Sterol 14-alpha demethylase, sequence (Q7Z1V1 whole entry): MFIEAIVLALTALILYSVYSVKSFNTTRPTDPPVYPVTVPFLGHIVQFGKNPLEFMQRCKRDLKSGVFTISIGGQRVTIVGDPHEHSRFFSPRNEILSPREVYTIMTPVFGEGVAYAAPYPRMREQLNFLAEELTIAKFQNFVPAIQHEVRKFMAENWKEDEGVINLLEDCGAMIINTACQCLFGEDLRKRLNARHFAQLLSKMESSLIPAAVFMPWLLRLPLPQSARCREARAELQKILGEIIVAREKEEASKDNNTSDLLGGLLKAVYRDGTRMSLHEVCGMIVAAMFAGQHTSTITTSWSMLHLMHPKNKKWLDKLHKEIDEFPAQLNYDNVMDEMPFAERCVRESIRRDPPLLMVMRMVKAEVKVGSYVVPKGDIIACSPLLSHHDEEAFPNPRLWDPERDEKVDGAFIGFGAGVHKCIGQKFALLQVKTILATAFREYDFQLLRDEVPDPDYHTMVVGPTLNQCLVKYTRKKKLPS

| SMILES | IC50 [1] | IC50 [2] | IC50 [3] | IC50 [4] | IC50 [5] | IC50 [6] | IC50 [7] | IC50 [8] | IC50 [9] | IC50 [10] | IC50 at 48 h [11] | IC50 [12] |
| --- | --- | --- | --- | --- | --- | --- | --- | --- | --- | --- | --- | --- |
| Oc1cc(CSc2ccc(Cl)cc2)nc(-c2ccccn2)n1 | 1 µM | 1.58 µM | 0.794 µM | 3.16 µM | 1.58 µM | 5.01 µM | 2 µM | 3.98 µM | 0.794 µM | 1 µM | > 100 µM | 63.1 µM |
| CCc1c(C)nc(-n2nc(C)cc2NC(=O)COc2ccccc2F)[nH]c1=O | 0.631 µM | 0.631 µM | 0.158 µM | 2.51 µM | 0.126 µM | 7.94 µM | 5.01 µM | 3.98 µM | 0.158 µM | 0.2 µM | > 100 µM | > 100 µM |
| COc1ccc(C(=O)[C@H]2C[C@@H]2CN(Cc2ccccn2)Cc2ccccn2)cc1 | 1.58 µM | 1.58 µM | 1 µM | 25.1 µM | 7.94 µM | 1.58 µM | 1.26 µM | > 50.1 µM | 6.31 µM | 15.8 µM | > 100 µM | 39.8 µM |
| CCS(=O)(=O)c1cccc(C(=O)Nc2nc(-c3ccccn3)cs2)c1 | 1.58 µM | 2.51 µM | 1.58 µM | 3.98 µM | 1.26 µM | 3.98 µM | 3.16 µM | 20 µM | 0.501 µM | 0.631 µM | 25.1 µM | 63.1 µM |
| COc1cc2c(cc1OC)[C@H]1[C@@H](C)c3ccc(OC)c(OC)c3CN1CC2 | 25.1 µM | > 50.1 µM | 20 µM | > 50.1 µM | 2.51 µM | 20 µM | 15.8 µM | > 50.1 µM | 25.1 µM | > 39.8 µM | > 100 µM | 79.4 µM |
| O=[N+]([O-])c1ccc(-c2nnn(-c3cccnc3)n2)o1 | 0.251 µM | > 50.1 µM | 0.0631 µM | 6.31 µM | 15.8 µM | > 50.1 µM | 50.1 µM | 12.6 µM | 0.316 µM | 0.501 µM | > 100 µM | 3.98 µM |
| O=[N+]([O-])c1ccc(-c2nnn(-c3ccc(Cl)cc3)n2)o1 | 0.251 µM | 0.794 µM | 0.0794 µM | 10 µM | 6.31 µM | > 50.1 µM | > 50.1 µM | > 50.1 µM | 0.316 µM | 1 µM | > 100 µM | > 100 µM |
| COCc1cc(Nc2ccc(Cl)cc2)nc(-c2ccccn2)n1 | 1.58 µM | 5.01 µM | 2.51 µM | 1.26 µM | 2.51 µM | 1.26 µM | 0.794 µM | 20 µM | 20 µM | > 39.8 µM | 12.6 µM | > 100 µM |
| COCc1cc(Nc2ccccc2)nc(-c2ccccn2)n1 | 5.01 µM | 25.1 µM | 12.6 µM | 3.98 µM | 7.94 µM | 7.94 µM | 5.01 µM | > 50.1 µM | > 39.8 µM | > 39.8 µM | 100 µM | > 100 µM |
| CNC(=O)Oc1ccc(C(=O)NCc2ccccc2)cc1OC(=O)NC | 31.6 µM | 39.8 µM | 39.8 µM | > 50.1 µM | > 50.1 µM | > 50.1 µM | > 50.1 µM | > 50.1 µM | 0.126 µM | 0.398 µM | > 100 µM | > 100 µM |
| CC(C)(C)Nc1nc(Nc2ccc3c(c2)CS(=O)(=O)C3)nc2[nH]ccc12 | 1 µM | 31.6 µM | 20 µM | 1 µM | 7.94 µM | 6.31 µM | 5.01 µM | 20 µM | 0.794 µM | 5.01 µM | 31.6 µM | 25.1 µM |

Reference: ChEMBL document CHEMBL3430912, “GSK Tres Cantos Anti-Kinetoplastid Screening (TCAKS) Data”
